We go through two molecules from patent US8419943B2, “Method of removing protein-bound deleterious substances during extracorporeal renal replacement treatment” (Fresenius Medical Care Holdings, Inc., priority 2008, dated 2013).

For series [1] the following is noted: normal adults; cited from earlier work.
The target in another series is albumin (Homo sapiens, UniProt P02768). The series is described as follows: Competitive displacement of indoxyl sulfate by bilirubin in model uremic plasma. The class given is binding. Conditions: uremic plasma (BUN about 55 mg/dL, albumin 3.82 g/dL) with 2 mMolar Bil-DT, 12 hours at 37° C.; control without Bil-DT 0.65 μg/ml. As for the experimental part:
Two samples of uremic plasma (blood urea nitrogen (BUN) of about 55 mg/dL, albumin concentration of 3.82 g/dL) including indoxyl sulfate were incubated for 12 hours at 37° C. One sample also included 2 mMolar bilirubin ditauride (Bil-DT).

Chain of albumin (P02768 25-609): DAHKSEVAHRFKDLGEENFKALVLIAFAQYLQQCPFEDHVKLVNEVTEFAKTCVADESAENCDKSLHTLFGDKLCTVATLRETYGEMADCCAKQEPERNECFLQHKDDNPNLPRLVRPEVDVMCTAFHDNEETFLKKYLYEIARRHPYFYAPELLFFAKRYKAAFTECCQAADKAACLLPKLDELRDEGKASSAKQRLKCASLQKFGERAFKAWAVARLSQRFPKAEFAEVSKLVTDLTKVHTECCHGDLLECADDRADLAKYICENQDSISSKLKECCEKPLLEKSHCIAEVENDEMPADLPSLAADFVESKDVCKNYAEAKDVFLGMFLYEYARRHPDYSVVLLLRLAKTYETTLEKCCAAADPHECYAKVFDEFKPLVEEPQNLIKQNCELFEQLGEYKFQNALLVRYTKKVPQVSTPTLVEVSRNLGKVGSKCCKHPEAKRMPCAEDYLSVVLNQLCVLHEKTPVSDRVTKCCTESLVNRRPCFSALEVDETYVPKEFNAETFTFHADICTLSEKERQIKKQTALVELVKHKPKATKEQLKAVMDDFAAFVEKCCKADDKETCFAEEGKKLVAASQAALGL

Consider `C=CC1=C(C)/C(=C/c2[nH]c(Cc3[nH]c(/C=C4\NC(=O)C(C)=C4C=C)c(C)c3CCC(=O)O)c(CCC(=O)O)c2C)NC1=O` [Bilirubin, bilirubin], for which the “non-toxic level of serum bilirubin concentration” value in series [1] is listed as “about 10 mg/dL”.

For bilirubin ditauride [Bil-DT], the “free indoxyl sulfate concentration” value on albumin turned out to be 0.93 µg/mL.
